Marks after values point to notes of the source that are not given here.
System: Landrace x Large White reserve sows
Test: Heat detection: estrus rate and estrus time in gilts, different doses (Example 2)
Format: in vivo, pigs
Settings: gilts
Text: Landrace x Large White reserve sows, about 230 days old, were randomly divided into a batch farrowing with FTAI and batch farrowing with FTAI combined with different doses of 1-[bis(4-cyanophenyl)methyl]-1,2,4-triazole groups, and during the experiment, the experimental sows in each group were fed regularly and gained free access to water according to the requirements of feeding management in the farm.
Referring to the dosage of 1-[bis(4-cyanophenyl)methyl]-1,2,4-triazole in clinical medicine and using standard weight-dosage conversion, the recommended dosage of 1-[bis(4-cyanophenyl)methyl]-1,2,4-triazole for sows was 50-150 μg/kg·BW/day, orally for consecutive 5 days, as derived by conversion. In addition, the applicant previously studied uniparous cows, and in the ovulation induction scheme, the reference dosage of 1-[bis(4-cyanophenyl)methyl]-1,2,4-triazole was 60-200 μg/kg·BW, administered in a single dose; furthermore, by means of conversion in conjunction with the dosage for model animals (mice) previously in the laboratory, various dosages were designed. The treatment methods of hormones and drugs for sows in each group were as follows: • batch farrowing with FTAI: the sows were fed with an altrenogest oral solution at 20 mg/animal at the same time every day, for 18 days; PMSG at 1000 IU/animal was injected intramuscularly 42 h after the last feeding with altrenogest, GnRH at 100 μg/animal was injected intramuscularly 80 h after the injection of PMSG, a first timed insemination was performed 24 h after the injection of GnRH, and a second timed insemination was performed 16 h after the first insemination.
Treatment group 1: the hormone treatment and mating schemes for gilts were the same as FTAI. The difference lay in that PMSG at 1000 IU/gilt was injected intramuscularly 42 h after the last feeding with altrenogest, and 1-[bis(4-cyanophenyl)methyl]-1,2,4-triazole at 12 μg/kg·BW/day was administered orally 8 h after the injection of PMSG, for 1 day.
Treatment group 2: the hormone treatment and mating schemes for gilts were the same as FTAI. The difference lay in that PMSG at 1000 IU/gilt was injected intramuscularly 42 h after the last feeding with altrenogest, and 1-[bis(4-cyanophenyl)methyl]-1,2,4-triazole at 12 μg/kg·BW/day was administered orally 8 h after the injection of PMSG, for 2 days.
Treatment group 3: the hormone treatment and mating schemes for gilts were the same as FTAI. The difference lay in that PMSG at 1000 IU/gilt was injected intramuscularly 42 h after the last feeding with altrenogest, and 1-[bis(4-cyanophenyl)methyl]-1,2,4-triazole at 20 μg/kg·BW/day was administered orally 8 h after the injection of PMSG, for 1 day.
Treatment group 4: the hormone treatment and mating schemes for sows were the same as FTAI. The difference lay in that PMSG at 1000 IU/gilt was injected intramuscularly 42 h after the last feeding with altrenogest, and 1-[bis (4-cyanophenyl)methyl]-1,2,4-triazole at 20 μg/kg·BW/day was administered orally 8 h after the injection of PMSG, for 2 days.
Treatment group 5: the hormone treatment and mating schemes for gilts were the same as FTAI. The difference lay in that PMSG at 1000 IU/animal was injected intramuscularly 42 h after the last feeding with altrenogest, and 1-[bis(4-cyanophenyl)methyl]-1,2,4-triazole at 20 μg/kg·BW/day was administered orally 8 h after the injection of PMSG, for 3 days.
Treatment group 6: the hormone treatment and mating schemes for gilts were the same as FTAI. The difference lay in that PMSG at 1000 IU/animal was injected intramuscularly 42 h after the last feeding with altrenogest, and 1-[bis(4-cyanophenyl)methyl]-1,2,4-triazole at 20 μg/kg·BW/day was administered orally 8 h after the injection of PMSG, for 5 days.
Treatment group 7: the hormone treatment and mating schemes for gilts were the same as FTAI. […]

[1] = Example 2 Treatment group 1: 12 μg/kg·BW/day orally, 1 day
[2] = Example 2 Treatment group 2: 12 μg/kg·BW/day orally, 2 days
[3] = Example 2 Treatment group 3: 20 μg/kg·BW/day orally, 1 day
[4] = Example 2 Treatment group 4: 20 μg/kg·BW/day orally, 2 days
[5] = Example 2 Treatment group 5: 20 μg/kg·BW/day orally, 3 days
[6] = Example 2 Treatment group 6: 20 μg/kg·BW/day orally, 5 days
[7] = Example 2 Treatment group 7: 40 μg/kg·BW/day orally, 1 day
[8] = Example 2 Treatment group 8: 40 μg/kg·BW/day orally, 5 days
[9] = Example 2 Treatment group 9: 80 μg/kg·BW/day orally, 5 days
[10] = Example 2 Treatment group 10: 160 μg/kg·BW/day orally, 5 days

N#Cc1ccc(C(c2ccc(C#N)cc2)n2cncn2)cc1 [1-[bis(4-cyanophenyl)methyl]-1,2,4-triazole]
Estrus number [1]: 27 | Estrus rate (%) [1]: 90.00^a % | Interval from stopping taking Altrenogest to estrus (days) [1]: 6.13 ± 0.12^b days | Estrus number [2]: 23 | Estrus rate (%) [2]: 85.19^a % | Interval from stopping taking Altrenogest to estrus (days) [2]: 6.07 ± 0.13^b days | Estrus number [3]: 22 | Estrus rate (%) [3]: 88.00^a % | Interval from stopping taking Altrenogest to estrus (days) [3]: 6.11 ± 0.12^b days | Estrus number [4]: 21 | Estrus rate (%) [4]: 84.00^a % | Interval from stopping taking Altrenogest to estrus (days) [4]: 6.07 ± 0.15^b days | Estrus number [5]: 24 | Estrus rate (%) [5]: 92.31^a % | Interval from stopping taking Altrenogest to estrus (days) [5]: 6.19 ± 0.16^b days | Estrus number [6]: 20 | Estrus rate (%) [6]: 76.92^b % | Interval from stopping taking Altrenogest to estrus (days) [6]: 6.70 ± 0.16^a days | Estrus number [7]: 22 | Estrus rate (%) [7]: 84.61^a % | Interval from stopping taking Altrenogest to estrus (days) [7]: 6.77 ± 0.14^a days | Estrus number [8]: 4 | Estrus rate (%) [8]: 16.67^b % | Interval from stopping taking Altrenogest to estrus (days) [8]: 6.25 ± 0.14^b days | Estrus number [9]: 0 | Estrus rate (%) [9]: 0.00^b % | Estrus number [10]: 0 | Estrus rate (%) [10]: 0.00^b % | Number of estrous animals at different times after stopping Altrenogest (day/animal) (day 4.5, Example 2 Treatment group 1: 12 μg/kg·BW/day orally, 1 day): 0 animal | Number of estrous animals at different times after stopping Altrenogest (day/animal) (day 4.5, Example 2 Treatment group 2: 12 μg/kg·BW/day orally, 2 days): 0 animal | Number of estrous animals at different times after stopping Altrenogest (day/animal) (day 4.5, Example 2 Treatment group 3: 20 μg/kg·BW/day orally, 1 day): 0 animal | Number of estrous animals at different times after stopping Altrenogest (day/animal) (day 4.5, Example 2 Treatment group 4: 20 μg/kg·BW/day orally, 2 days): 0 animal | Number of estrous animals at different times after stopping Altrenogest (day/animal) (day 4.5, Example 2 Treatment group 5: 20 μg/kg·BW/day orally, 3 days): 0 animal | Number of estrous animals at different times after stopping Altrenogest (day/animal) (day 4.5, Example 2 Treatment group 6: 20 μg/kg·BW/day orally, 5 days): 0 animal | Number of estrous animals at different times after stopping Altrenogest (day/animal) (day 4.5, Example 2 Treatment group 7: 40 μg/kg·BW/day orally, 1 day): 0 animal | Number of estrous animals at different times after stopping Altrenogest (day/animal) (day 4.5, Example 2 Treatment group 8: 40 μg/kg·BW/day orally, 5 days): 0 animal | Number of estrous animals at different times after stopping Altrenogest (day/animal) (day 5, Example 2 Treatment group 1: 12 μg/kg·BW/day orally, 1 day): 1 animal | Number of estrous animals at different times after stopping Altrenogest (day/animal) (day 5, Example 2 Treatment group 2: 12 μg/kg·BW/day orally, 2 days): 0 animal | Number of estrous animals at different times after stopping Altrenogest (day/animal) (day 5, Example 2 Treatment group 3: 20 μg/kg·BW/day orally, 1 day): 0 animal | Number of estrous animals at different times after stopping Altrenogest (day/animal) (day 5, Example 2 Treatment group 4: 20 μg/kg·BW/day orally, 2 days): 0 animal | Number of estrous animals at different times after stopping Altrenogest (day/animal) (day 5, Example 2 Treatment group 5: 20 μg/kg·BW/day orally, 3 days): 2 animal | Number of estrous animals at different times after stopping Altrenogest (day/animal) (day 5, Example 2 Treatment group 6: 20 μg/kg·BW/day orally, 5 days): 1 animal | Number of estrous animals at different times after stopping Altrenogest (day/animal) (day 5, Example 2 Treatment group 7: 40 μg/kg·BW/day orally, 1 day): 0 animal | Number of estrous animals at different times after stopping Altrenogest (day/animal) (day 5, Example 2 Treatment group 8: 40 μg/kg·BW/day orally, 5 days): 0 animal | Number of estrous animals at different times after stopping Altrenogest (day/animal) (day 5.5, Example 2 Treatment group 1: 12 μg/kg·BW/day orally, 1 day): 8 animal | Number of estrous animals at different times after stopping Altrenogest (day/animal) (day 5.5, Example 2 Treatment group 2: 12 μg/kg·BW/day orally, 2 days): 9 animal | Number of estrous animals at different times after stopping Altrenogest (day/animal) (day 5.5, Example 2 Treatment group 3: 20 μg/kg·BW/day orally, 1 day): 7 animal | Number of estrous animals at different times after stopping Altrenogest (day/animal) (day 5.5, Example 2 Treatment group 4: 20 μg/kg·BW/day orally, 2 days): 8 animal
